Results reported in US8415469B2, “Compounds and methods for kinase modulation, and indications therefor” (Plexxikon Inc., priority 2005, dated 2013).

Columns and labels:
Assay type in all cases: biochemical
FGFR1 = molecular target: T1, FGFR1 (Homo sapiens, UniProt P11362, C488A/C584S); test: AlphaScreen kinase assay, FGFR1; settings: read-out: IC50, activity toward kinase FGFR
T1 construct: P1351.pET N6 BI-PTP FGFR A458-E765-X C488A, C584S; made in house; host or cells: E. coli (PTP1B co-expressed)
T1 sequence (P11362 458-765 C488A/C584S): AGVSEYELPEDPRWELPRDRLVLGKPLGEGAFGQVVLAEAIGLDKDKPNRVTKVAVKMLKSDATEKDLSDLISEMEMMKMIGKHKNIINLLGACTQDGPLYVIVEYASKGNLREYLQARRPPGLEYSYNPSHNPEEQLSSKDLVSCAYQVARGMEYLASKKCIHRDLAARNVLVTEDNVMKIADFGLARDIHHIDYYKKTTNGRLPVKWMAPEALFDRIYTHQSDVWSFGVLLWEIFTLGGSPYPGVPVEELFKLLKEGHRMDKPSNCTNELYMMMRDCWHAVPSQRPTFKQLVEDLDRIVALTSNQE

Flt1 = molecular target: T2, Flt1 (Homo sapiens, UniProt P17948); test: AlphaScreen kinase assay, Flt1; settings: read-out: IC50, activity toward kinase Flt1
T2 construct: P1826.pETN6 BI-PTP FLT1 M799-D1165-X WT; His6 (N); made in house; host or cells: E. coli (PTP1B co-expressed)
T2 sequence (P17948 with tags, fused parts or gaps): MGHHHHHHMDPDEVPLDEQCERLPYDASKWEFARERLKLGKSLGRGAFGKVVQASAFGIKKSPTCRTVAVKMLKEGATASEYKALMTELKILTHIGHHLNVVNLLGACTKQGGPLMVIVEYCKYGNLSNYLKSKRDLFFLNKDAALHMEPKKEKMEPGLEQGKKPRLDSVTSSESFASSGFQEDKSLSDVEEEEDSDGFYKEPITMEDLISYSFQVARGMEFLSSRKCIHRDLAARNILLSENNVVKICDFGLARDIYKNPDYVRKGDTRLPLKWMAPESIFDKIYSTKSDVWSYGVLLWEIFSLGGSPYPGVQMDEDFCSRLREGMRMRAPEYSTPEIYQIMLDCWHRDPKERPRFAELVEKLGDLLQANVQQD

Kit = molecular target: T3, Kit (Homo sapiens, UniProt P10721); test: AlphaScreen kinase assay, Kit; settings: read-out: IC50, activity toward kinase Kit
T3 construct: P1332.N6 BI PTP KIT M552-K948-X COD; His6 (N); made in house; host or cells: E. coli (PTP1B co-expressed)
T3 sequence (P10721 with tags, fused parts or gaps): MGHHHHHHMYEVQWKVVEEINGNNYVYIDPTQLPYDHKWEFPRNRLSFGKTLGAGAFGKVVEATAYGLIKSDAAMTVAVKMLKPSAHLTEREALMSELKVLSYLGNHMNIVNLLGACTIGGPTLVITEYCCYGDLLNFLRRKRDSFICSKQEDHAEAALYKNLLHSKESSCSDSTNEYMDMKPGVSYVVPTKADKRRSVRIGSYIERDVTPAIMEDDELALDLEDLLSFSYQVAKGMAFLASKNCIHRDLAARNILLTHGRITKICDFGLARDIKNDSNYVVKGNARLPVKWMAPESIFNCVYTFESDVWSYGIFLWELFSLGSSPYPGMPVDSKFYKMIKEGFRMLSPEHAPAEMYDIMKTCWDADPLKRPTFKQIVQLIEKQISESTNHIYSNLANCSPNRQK

Ret = molecular target: T4, Ret (Homo sapiens, UniProt P07949); test: AlphaScreen kinase assay, Ret; settings: read-out: IC50, activity toward kinase Ret
T4 construct: P1378.pET-SF BI-PTP RET H661-R1012 HIS; made in house
T4 sequence (P07949 with tags, fused parts or gaps): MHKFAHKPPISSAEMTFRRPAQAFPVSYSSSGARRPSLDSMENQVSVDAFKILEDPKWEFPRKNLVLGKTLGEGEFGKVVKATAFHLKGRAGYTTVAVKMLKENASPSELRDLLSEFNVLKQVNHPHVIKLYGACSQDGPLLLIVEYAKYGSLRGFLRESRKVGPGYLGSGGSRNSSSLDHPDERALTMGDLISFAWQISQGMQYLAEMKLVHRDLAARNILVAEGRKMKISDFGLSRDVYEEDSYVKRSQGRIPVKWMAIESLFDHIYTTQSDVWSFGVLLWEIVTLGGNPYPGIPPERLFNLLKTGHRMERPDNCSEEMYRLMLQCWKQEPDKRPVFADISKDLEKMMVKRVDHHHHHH

c-Raf-1 = molecular target: T5, c-Raf-1 (Homo sapiens, UniProt P04049); test: AlphaScreen kinase assay, c-Raf-1; settings: read-out: IC50, activity toward kinase c-Raf-1
T5 construct: purchased Upstate Biotechnology
T5 sequence (P04049 whole entry): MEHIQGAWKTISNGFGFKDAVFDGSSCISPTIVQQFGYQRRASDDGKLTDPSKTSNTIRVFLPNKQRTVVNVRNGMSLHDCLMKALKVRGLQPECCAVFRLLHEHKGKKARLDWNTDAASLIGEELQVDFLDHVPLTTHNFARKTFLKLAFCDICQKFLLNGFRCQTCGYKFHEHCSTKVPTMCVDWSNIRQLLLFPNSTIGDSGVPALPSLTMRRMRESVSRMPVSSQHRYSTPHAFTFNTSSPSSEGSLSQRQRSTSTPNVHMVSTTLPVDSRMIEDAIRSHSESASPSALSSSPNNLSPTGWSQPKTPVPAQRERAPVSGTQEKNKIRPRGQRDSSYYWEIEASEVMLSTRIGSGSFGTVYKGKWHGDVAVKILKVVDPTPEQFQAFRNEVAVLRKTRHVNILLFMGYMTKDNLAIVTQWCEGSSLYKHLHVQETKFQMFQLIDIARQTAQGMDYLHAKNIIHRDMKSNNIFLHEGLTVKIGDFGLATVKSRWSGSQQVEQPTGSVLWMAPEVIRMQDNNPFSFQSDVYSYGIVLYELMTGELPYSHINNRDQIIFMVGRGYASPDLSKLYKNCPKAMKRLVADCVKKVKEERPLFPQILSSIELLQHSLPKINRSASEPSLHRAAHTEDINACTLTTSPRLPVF

B-Raf V600E = molecular target: T6, B-Raf V600E (Homo sapiens, UniProt P15056, V600E); test: AlphaScreen kinase assay, B-Raf V600E; settings: read-out: IC50, activity toward kinase B-Raf V600E
T6 construct: P4254. pFastBacBD-CDC37 BRAF D437-K722-X, V600E; His6 with pFastBac HT leader (TEV site) (N); made in house; host or cells: Sf9 (baculovirus; chaperone CDC37 co-expressed)
T6 sequence (P15056 with tags, fused parts or gaps V600E): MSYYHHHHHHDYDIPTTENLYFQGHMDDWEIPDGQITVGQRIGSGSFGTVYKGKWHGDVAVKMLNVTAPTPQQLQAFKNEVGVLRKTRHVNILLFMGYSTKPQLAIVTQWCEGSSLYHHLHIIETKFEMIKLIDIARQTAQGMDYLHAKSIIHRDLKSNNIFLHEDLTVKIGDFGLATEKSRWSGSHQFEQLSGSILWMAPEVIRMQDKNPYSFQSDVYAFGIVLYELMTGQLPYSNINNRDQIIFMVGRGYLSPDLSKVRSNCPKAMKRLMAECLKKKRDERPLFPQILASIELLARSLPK

B-Raf = molecular target: T7, B-Raf (Homo sapiens, UniProt P15056); test: AlphaScreen kinase assay, B-Raf; settings: read-out: IC50, activity toward kinase B-Raf
T7 construct: purchased Upstate Biotechnology
T7 sequence (P15056 whole entry): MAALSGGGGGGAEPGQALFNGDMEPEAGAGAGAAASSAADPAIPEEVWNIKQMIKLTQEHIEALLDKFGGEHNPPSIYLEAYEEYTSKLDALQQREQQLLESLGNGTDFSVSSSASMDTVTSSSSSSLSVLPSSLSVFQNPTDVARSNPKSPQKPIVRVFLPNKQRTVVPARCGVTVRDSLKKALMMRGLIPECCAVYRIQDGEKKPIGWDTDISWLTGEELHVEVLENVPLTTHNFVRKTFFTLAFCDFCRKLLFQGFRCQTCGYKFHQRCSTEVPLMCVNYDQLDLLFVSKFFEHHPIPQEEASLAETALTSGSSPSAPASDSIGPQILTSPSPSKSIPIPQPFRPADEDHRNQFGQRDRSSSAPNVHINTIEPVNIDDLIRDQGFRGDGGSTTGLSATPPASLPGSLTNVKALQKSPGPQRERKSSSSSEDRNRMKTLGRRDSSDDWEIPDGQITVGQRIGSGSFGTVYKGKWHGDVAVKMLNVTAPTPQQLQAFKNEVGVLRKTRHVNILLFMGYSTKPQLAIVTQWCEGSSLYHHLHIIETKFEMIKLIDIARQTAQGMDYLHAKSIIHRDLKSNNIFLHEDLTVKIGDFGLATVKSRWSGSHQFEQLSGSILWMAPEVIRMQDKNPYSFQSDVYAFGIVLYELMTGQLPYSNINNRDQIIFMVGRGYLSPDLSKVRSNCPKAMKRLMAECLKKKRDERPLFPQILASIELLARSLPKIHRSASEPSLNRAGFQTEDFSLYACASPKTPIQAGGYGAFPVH

Fms = molecular target: T8, Fms (Homo sapiens, UniProt P07333); test: AlphaScreen kinase assay, Fms; settings: read-out: IC50, activity toward kinase Fms
T8 construct: purchased Upstate Biotechnology
T8 sequence (P07333 20-972): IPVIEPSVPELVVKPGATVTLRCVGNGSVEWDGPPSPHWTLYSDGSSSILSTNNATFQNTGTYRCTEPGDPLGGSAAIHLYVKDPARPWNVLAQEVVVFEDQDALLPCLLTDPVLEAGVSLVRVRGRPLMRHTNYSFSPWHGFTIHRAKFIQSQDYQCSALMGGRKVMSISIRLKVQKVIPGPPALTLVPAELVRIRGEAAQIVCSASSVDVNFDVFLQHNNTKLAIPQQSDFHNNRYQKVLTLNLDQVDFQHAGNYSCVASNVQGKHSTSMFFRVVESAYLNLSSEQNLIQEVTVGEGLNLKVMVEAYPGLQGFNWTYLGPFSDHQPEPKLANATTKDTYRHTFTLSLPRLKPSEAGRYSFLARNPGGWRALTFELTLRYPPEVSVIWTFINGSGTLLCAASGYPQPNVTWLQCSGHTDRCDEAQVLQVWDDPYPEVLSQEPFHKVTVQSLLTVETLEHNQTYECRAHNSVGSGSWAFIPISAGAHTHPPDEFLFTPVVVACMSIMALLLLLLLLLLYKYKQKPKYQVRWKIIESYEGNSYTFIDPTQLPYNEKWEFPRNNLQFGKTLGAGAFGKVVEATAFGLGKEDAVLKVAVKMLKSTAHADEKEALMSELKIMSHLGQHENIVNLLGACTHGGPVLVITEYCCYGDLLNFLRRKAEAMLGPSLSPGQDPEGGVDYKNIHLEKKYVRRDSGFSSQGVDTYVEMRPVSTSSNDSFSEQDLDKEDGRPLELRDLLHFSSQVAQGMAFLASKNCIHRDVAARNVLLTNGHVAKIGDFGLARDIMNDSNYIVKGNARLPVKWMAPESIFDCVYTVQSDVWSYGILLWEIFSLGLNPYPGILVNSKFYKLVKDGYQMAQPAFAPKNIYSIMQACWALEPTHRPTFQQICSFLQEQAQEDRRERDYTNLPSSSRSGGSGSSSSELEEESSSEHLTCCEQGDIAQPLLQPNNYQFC

Measured: IC50

Cc1cc(C(=O)c2c[nH]c3ncc(-c4ccc(C(N)=O)cc4)cc23)nn1C [Compound P-0749]
≤ 10 µM: FGFR1 | Flt1 | Kit | Ret

COC(=O)Nc1ccc(F)c(C(=O)c2c[nH]c3ncccc23)c1F [Compound P-0974, [2,4-Difluoro-3-(1H-pyrrolo[2,3-b]pyridine-3-carbonyl)-phenyl]-carbamic acid methyl ester]
≤ 10 µM: c-Raf-1 | FGFR1

O=C(c1c(F)ccc(NS(=O)(=O)c2ccc(Cl)c(Cl)c2)c1F)c1c[nH]c2ncccc12 [Compound P-1015, 3,4-Dichloro-N-[2,4-difluoro-3-(1H-pyrrolo[2,3-b]pyridine-3-carbonyl)-phenyl]-benzenesulfonamide]
≤ 10 µM: B-Raf V600E | c-Raf-1 | FGFR1

Fc1cnc2[nH]ccc2c1 [Compound P-1061]
≤ 10 µM: B-Raf V600E | c-Raf-1

Clc1cnc2[nH]ccc2c1 [Compound P-1063]
≤ 10 µM: B-Raf V600E | c-Raf-1

COC(c1ccc(NCc2ccc(Cl)c(C(F)(F)F)c2)nc1)c1c[nH]c2ncccc12 (stereo not drawn) [Compound P-1064]
≤ 10 µM: B-Raf V600E | c-Raf-1

COc1cccc(Nc2ccnc3[nH]ccc23)c1 [Compound P-1065]
≤ 10 µM: B-Raf V600E | c-Raf-1

CCC(C(=O)c1c[nH]c2ncccc12)S(=O)(=O)Nc1cc(F)cc(F)c1 (stereo not drawn) [Compound P-1070]
≤ 10 µM: B-Raf V600E | c-Raf-1

CCCS(=O)(=O)Nc1ccc(F)c(C(O)c2c[nH]c3ncc(N4CCOCC4)cc23)c1F (stereo not drawn) [Compound P-1071]
≤ 10 µM: B-Raf V600E | c-Raf-1

CCCNC(=O)c1ccc(OC)c(C(=O)c2c[nH]c3ncc(-c4cccnc4)cc23)c1F [Compound P-1077]
≤ 10 µM: c-Raf-1

CCCNS(=O)(=O)c1ccc(OC)c(C(=O)c2c[nH]c3ncc(-c4cccnc4)cc23)c1F [Compound P-1078]
≤ 10 µM: c-Raf-1 | FGFR1

CC(C)Oc1cccc(Nc2ccnc3[nH]ccc23)c1 [Compound P-1079]
≤ 10 µM: c-Raf-1

c1cc2cc(N3CCOCC3)cnc2[nH]1 [Compound P-1118]
≤ 10 µM: c-Raf-1

CC1CCN(c2cnc3[nH]ccc3c2)CC1 [Compound P-1122]
≤ 10 µM: c-Raf-1

CCCS(=O)(=O)Nc1ccc(F)c(C(=O)c2c[nH]c3ncc(-c4cccc(F)c4)cc23)c1F [Compound P-1259, Propane-1-sulfonic acid {2,4-difluoro-3-[5-(3-fluoro-phenyl)-1H-pyrrolo[2,3-b]pyridine-3-carbonyl]-phenyl}-amide]
not listed: Ret | c-Raf-1
≤ 10 µM: all other assays above

CCCC(=O)Nc1ccc(F)c(C(=O)c2c[nH]c3ncc(Br)cc23)c1F [Compound P-1283]
≤ 10 µM: B-Raf V600E | c-Raf-1 | FGFR1

O=C(c1cccc(OC(F)(F)F)c1)c1c[nH]c2ncc(-c3cccnc3)cc12 [Compound P-1413, (5-Pyridin-3-yl-1H-pyrrolo[2,3-b]pyridin-3-yl)-(3-trifluoromethoxy-phenyl)-methanone]
≤ 10 µM: B-Raf V600E | c-Raf-1 | Kit

CS(=O)(=O)Nc1cccc(-c2cnc3[nH]cc(C(=O)c4cccc(OC(F)F)c4)c3c2)c1 [Compound P-1430, N-{3-[3-(3-Difluoromethoxy-benzoyl)-1H-pyrrolo[2,3-b]pyridin-5-yl]-phenyl}-methanesulfonamide]
not listed: Ret | c-Raf-1
≤ 10 µM: all other assays above

O=C(c1c(F)ccc(OC(F)F)c1F)c1c[nH]c2ncc(Br)cc12 [Compound P-1526, (5-Bromo-1H-pyrrolo[2,3-b]pyridin-3-yl)-(3-difluoromethoxy-2,6-difluoro-phenyl)-methanone]
not listed: Ret | c-Raf-1
≤ 10 µM: all other assays above

O=C(c1c(F)ccc(OC(F)F)c1F)c1c[nH]c2ncc(-c3cccnc3)cc12 [Compound P-1528, (3-Difluoromethoxy-2,6-difluoro-phenyl)-(5-pyridin-3-yl-1H-pyrrolo[2,3-b]pyridin-3-yl)-methanone]
not listed: Ret | c-Raf-1
≤ 10 µM: all other assays above

CCCS(=O)(=O)Nc1ccc(F)c(C(=O)c2c[nH]c3ncc(C(=O)OC)cc23)c1F [Compound P-1552, 3-[2,6-difluoro-3-(propane-1-sulfonylamino)-benzoyl]-1H-pyrrolo[2,3-b]pyridine-5-carboxylic acid methyl ester]
≤ 10 µM: B-Raf | B-Raf V600E | Flt1 | Fms | Kit

CCCS(=O)(=O)Nc1ccc(F)c(C(=O)c2c[nH]c3ncc(C(=O)O)cc23)c1F [Compound P-1559, 3-[2,6-difluoro-3-(propane-1-sulfonylamino)-benzoyl]-1H-pyrrolo[2,3-b]pyridine-5-carboxylic acid]
≤ 10 µM: B-Raf | B-Raf V600E | Flt1 | Fms | Kit

O=C(NCCN1CCOCC1)Nc1ccc(F)c(C(=O)c2c[nH]c3ncc(Cl)cc23)c1F [Compound P-1580, 1-[3-(5-Chloro-1H-pyrrolo[2,3-b]pyridine-3-carbonyl)-2,4-difluoro-phenyl]-3-(2-morpholin-4-yl-ethyl)-urea]
≤ 10 µM: B-Raf | Flt1 | Fms | Kit

COc1cnc2[nH]cc(C(=O)c3c(F)ccc(NS(=O)(=O)c4cccc(C(F)(F)F)c4)c3F)c2c1 [Compound P-1598, N-[2,4-Difluoro-3-(5-methoxy-1H-pyrrolo[2,3-b]pyridine-3-carbonyl)-phenyl]-3-trifluoromethyl-benzenesulfonamide]
≤ 10 µM: B-Raf | B-Raf V600E | Flt1 | Fms | Kit

O=C(c1c(F)ccc(NS(=O)(=O)c2cccc(C(F)(F)F)c2)c1F)c1c[nH]c2ncc(Cl)cc12 [Compound P-1599, N-[3-(5-Chloro-1H-pyrrolo[2,3-b]pyridine-3-carbonyl)-2,4-difluoro-phenyl]-3-trifluoromethyl-benzenesulfonamide]
≤ 10 µM: B-Raf | B-Raf V600E | Flt1 | Fms | Kit
